# According to ChEMBL document CHEMBL1201862, “PubChem BioAssay data set” (2004):
#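 Following 48 hours of exposure in 96-well plates, responses at five concentrations were used to interpolate endpoints linearly. GI50 is the concentration that inhibits growth by half.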 Activity calls are given as the source filed them. Rule as the data show it: active = GI50 up to about 1.1 µM and inactive = higher.
# Columns and labels:
# Experiment in all cases: growth of human tumour cells (NCI), 48 h
# 786-0 = test system: 786-0
# A498 = test system: A498
# A549 = test system: A549
# ACHN = test system: ACHN
# BT-549 = test system: BT-549
# CAKI-1 = test system: CAKI-1
# CCRF-CEM = test system: CCRF-CEM
# COLO 205 = test system: COLO 205
# DU-145 = test system: DU-145
# EKVX = test system: EKVX
# HCC 2998 = test system: HCC 2998
# HCT-116 = test system: HCT-116
# HCT-15 = test system: HCT-15
# HL-60 = test system: HL-60
# HOP-62 = test system: HOP-62
# HOP-92 = test system: HOP-92
# HT-29 = test system: HT-29
# Hs-578T = test system: Hs-578T
# IGROV-1 = test system: IGROV-1
# K562 = test system: K562
# KM12 = test system: KM12
# LOX IMVI = test system: LOX IMVI
# M14 = test system: M14
# MCF7 = test system: MCF7
# MDA-MB-231 = test system: MDA-MB-231
# MDA-MB-435 = test system: MDA-MB-435
# MDA-N = test system: MDA-N
# MOLT-4 = test system: MOLT-4
# Malme-3M = test system: Malme-3M
# NCI-H226 = test system: NCI-H226
# NCI-H23 = test system: NCI-H23
# NCI-H460 = test system: NCI-H460
# NCI-H522 = test system: NCI-H522
# NCI/ADR-RES = test system: NCI/ADR-RES
# OVCAR-3 = test system: OVCAR-3
# OVCAR-4 = test system: OVCAR-4
# OVCAR-5 = test system: OVCAR-5
# OVCAR-8 = test system: OVCAR-8
# PC-3 = test system: PC-3
# RPMI-8226 = test system: RPMI-8226
# RXF 393 = test system: RXF 393
# SF-268 = test system: SF-268
# SF-295 = test system: SF-295
# SF-539 = test system: SF-539
# SK-MEL-28 = test system: SK-MEL-28
# SK-MEL-2 = test system: SK-MEL-2
# SK-MEL-5 = test system: SK-MEL-5
# SK-OV-3 = test system: SK-OV-3
# SN12C = test system: SN12C
# SNB-19 = test system: SNB-19
# SNB-75 = test system: SNB-75
# SR = test system: SR
# SW-620 = test system: SW-620
# T47D = test system: T47D
# TK-10 = test system: TK-10
# U-251 = test system: U-251
# UACC-257 = test system: UACC-257
# UACC-62 = test system: UACC-62
# UO-31 = test system: UO-31
smiles,measurement,setting,value
COc1cc(C2C3=C(COC3=O)Oc3cc4c(cc32)OCO4)ccc1OC(C)=O (centres undefined),GI50,786-0,0.521 µM (active)
same,GI50,A498,1.53 µM (inactive)
same,GI50,A549,0.957 µM (active)
same,GI50,ACHN,0.55 µM (active)
same,GI50,BT-549,0.222 µM (active)
same,GI50,CAKI-1,0.303 µM (active)
same,GI50,CCRF-CEM,0.35 µM (active)
same,GI50,COLO 205,0.224 µM (active)
same,GI50,DU-145,0.492 µM (active)
same,GI50,EKVX,1.21 µM (inactive)
same,GI50,HCC 2998,1.01 µM (active)
same,GI50,HCT-116,0.398 µM (active)
same,GI50,HCT-15,0.468 µM
same,GI50,HL-60,0.188 µM (active)
same,GI50,HOP-62,1.73 µM (inactive)
same,GI50,HOP-92,6 µM (inactive)
same,GI50,HT-29,0.346 µM (active)
same,GI50,Hs-578T,0.112 µM (active)
same,GI50,IGROV-1,0.238 µM (active)
same,GI50,K562,0.13 µM (active)
same,GI50,KM12,0.255 µM (active)
same,GI50,LOX IMVI,0.708 µM (active)
same,GI50,M14,0.498 µM (active)
same,GI50,MCF7,0.29 µM (active)
same,GI50,MDA-MB-231,0.436 µM (active)
same,GI50,MDA-MB-435,0.0263 µM (active)
same,GI50,MDA-N,0.0467 µM (active)
same,GI50,MOLT-4,0.536 µM (active)
same,GI50,Malme-3M,0.0893 µM (active)
same,GI50,NCI-H226,5.14 µM (inactive)
same,GI50,NCI-H23,0.67 µM (active)
same,GI50,NCI-H460,0.45 µM (active)
same,GI50,NCI-H522,0.0948 µM (active)
same,GI50,NCI/ADR-RES,0.279 µM (active)
same,GI50,OVCAR-3,0.244 µM (active)
same,GI50,OVCAR-4,1.41 µM (inactive)
same,GI50,OVCAR-5,5.22 µM (inactive)
same,GI50,OVCAR-8,0.752 µM (active)
same,GI50,PC-3,0.186 µM (active)
same,GI50,RPMI-8226,0.34 µM (active)
same,GI50,RXF 393,0.67 µM (active)
same,GI50,SF-268,1.09 µM (active)
same,GI50,SF-295,0.127 µM (active)
same,GI50,SF-539,0.25 µM (active)
same,GI50,SK-MEL-28,10.8 µM (inactive)
same,GI50,SK-MEL-2,0.684 µM (active)
same,GI50,SK-MEL-5,0.106 µM (active)
same,GI50,SK-OV-3,0.334 µM (active)
same,GI50,SN12C,2.19 µM (inactive)
same,GI50,SNB-19,0.35 µM (active)
same,GI50,SNB-75,0.168 µM (active)
same,GI50,SR,0.179 µM (active)
same,GI50,SW-620,0.284 µM (active)
same,GI50,T47D,0.565 µM (active)
same,GI50,TK-10,> 100 µM (inactive)
same,GI50,U-251,0.492 µM (active)
same,GI50,UACC-257,> 100 µM (inactive)
same,GI50,UACC-62,0.54 µM (active)
same,GI50,UO-31,0.352 µM (active)
COC(=O)C1=CO[C@@H](OC2OC(CO)C(O)C(O)C2O)[C@H]2[C@@H](C)[C@@H](O)[C@@H](O)[C@@H]12 (some centres undefined),GI50,786-0,> 100 µM (inactive)
same,GI50,A498,> 100 µM (inactive)
same,GI50,A549,> 100 µM (inactive)
same,GI50,ACHN,> 100 µM (inactive)
same,GI50,BT-549,> 100 µM (inactive)
same,GI50,CAKI-1,> 100 µM (inactive)
same,GI50,COLO 205,> 100 µM (inactive)
same,GI50,DU-145,> 100 µM (inactive)
same,GI50,EKVX,> 100 µM (inactive)
same,GI50,HCC 2998,> 100 µM (inactive)
same,GI50,HCT-116,> 100 µM (inactive)
same,GI50,HCT-15,> 100 µM
same,GI50,HL-60,> 100 µM (inactive)
same,GI50,HOP-62,> 100 µM (inactive)
same,GI50,HOP-92,> 100 µM (inactive)
same,GI50,HT-29,> 100 µM (inactive)
same,GI50,Hs-578T,> 100 µM (inactive)
same,GI50,IGROV-1,> 100 µM (inactive)
same,GI50,KM12,> 100 µM (inactive)
same,GI50,LOX IMVI,> 100 µM (inactive)
same,GI50,M14,> 100 µM (inactive)
same,GI50,MCF7,> 100 µM (inactive)
same,GI50,MDA-MB-231,> 100 µM (inactive)
same,GI50,MDA-MB-435,> 100 µM (inactive)
same,GI50,MDA-N,> 100 µM (inactive)
same,GI50,MOLT-4,> 100 µM (inactive)
same,GI50,Malme-3M,> 100 µM (inactive)
same,GI50,NCI-H226,> 100 µM (inactive)
same,GI50,NCI-H23,> 100 µM (inactive)
same,GI50,NCI-H522,> 100 µM (inactive)
same,GI50,NCI/ADR-RES,> 100 µM (inactive)
same,GI50,OVCAR-3,> 100 µM (inactive)
same,GI50,OVCAR-4,> 100 µM (inactive)
same,GI50,OVCAR-5,> 100 µM (inactive)
same,GI50,OVCAR-8,> 100 µM (inactive)
same,GI50,PC-3,> 100 µM (inactive)
same,GI50,RPMI-8226,> 100 µM (inactive)
same,GI50,RXF 393,> 100 µM (inactive)
same,GI50,SF-268,> 100 µM (inactive)
same,GI50,SF-295,> 100 µM (inactive)
same,GI50,SF-539,> 100 µM (inactive)
same,GI50,SK-MEL-28,> 100 µM (inactive)
same,GI50,SK-MEL-2,> 100 µM (inactive)
same,GI50,SK-MEL-5,> 100 µM (inactive)
same,GI50,SK-OV-3,> 100 µM (inactive)
same,GI50,SN12C,> 100 µM (inactive)
same,GI50,SNB-75,> 100 µM (inactive)
same,GI50,SR,36.6 µM (inactive)
same,GI50,SW-620,> 100 µM (inactive)
same,GI50,T47D,> 100 µM (inactive)
same,GI50,TK-10,> 100 µM (inactive)
same,GI50,U-251,> 100 µM (inactive)
same,GI50,UACC-257,> 100 µM (inactive)
same,GI50,UACC-62,> 100 µM (inactive)
same,GI50,UO-31,> 100 µM (inactive)
